Here are results for 13 compounds from patent US10266564B2, “Cationic lipid cordiarimide hybrid compounds and a process for preparation thereof” (COUNCIL OF SCIENTIFIC & INDUSTRIAL RESEARCH, priority 2014, dated 2019).

By IC50 is commonly meant the concentration that gives 50% inhibition.

For assay [1], the system named is PC-3 (human prostate cancer cells). Put plainly: MTT assay for cell viability, PC-3. The conditions noted are these: Homo sapiens, 48 h. The format is cell-based. The method, then:
(§1) The human cancer cell lines e.g. HepG2 (hepatocellular carcinoma, ATCC® HB-8065™), PC-3 (human prostate cancer cells, ATCC® CRL-1435™), MCF-7 (breast adenocarcinoma, ATCC® […]), and mouse embryo fibroblasts (NIH/3T3, ATCC® CRL-1658™), used in the present study were obtained from the ATCC (American Type Culture Collection, USA and maintained in RPMI 1640 (Roswell Park Memorial Institute, Merck) with 10% FBS (Merck), supplemented with 1% antibiotic and antimycotic solution (Gibco, USA) at 37° C. in a humidified incubator with 5% CO2. All stock solutions of the compounds were prepared in cell culture grade DMSO (dimethyl sulfoxide) and stored at −20° C. Compounds were diluted in culture media prior to use in experiments. Annexin V-FITC apoptosis detection kits were purchased from Calbiochem. MTT dye was procured from Sigma-Aldrich. All the flow cytometry experiments were performed using a FACScan (Becton Dickinson, Mountain View, Calif.) flow cytometer, equipped with a single 488 nm argon laser.
(§2) Cell viability was assessed by MTT assay, which is based on the reduction of MTT by mitochondrial dehydrogenases of viable cells to form a purple formazan product. Briefly, cells (5-6×10^3/well) were plated in 96 well plates. After incubating overnight, the cells were treated with […] different concentrations (100, 50, 20, 10, 5, 2.5, 1.25 μM) in triplicates with the cationic lipidated cordiarimide and intermediates for 48 h. Subsequently, 10 μL of MTT (10 mg/mL) was added to each well and incubated for 3 h. The MTT formazan formed by viable cells was dissolved in 100 μL of DMSO and shaken for 10 min. The absorbance was measured on an ELISA reader. Each test was repeated at least three times. The concentration of the compound which gives the 50% growth inhibition value corresponding to IC50, was calculated using GraphPad prism 5 software. In the present invention we have screened 26 lipidated cordiarimides and the results are described in table 1.

In assay [2] the test system is HepG2 (hepatocellular carcinoma). The experiment in a line: MTT assay for cell viability, HepG2. Type of assay: cell-based, human. The conditions noted are these: Homo sapiens, HepG2, 48 h. The method, then: as §1, §2
The subject of assay [3] is MCF-7 (breast adenocarcinoma). Put plainly: MTT assay for cell viability, MCF-7. The format is cell-based, human. The note with it: Homo sapiens, MCF7, 48 h. The procedure:
as §1, §2
A general note: Tetrazolium dyes change colour on reduction, which living cells bring about.

The subject of assay [4] is mouse embryo fibroblasts (NIH/3T3). The experiment in a line: MTT assay for cell viability, NIH/3T3. The note with it: NIH3T3, 48 h. The format is cell-based. The procedure:
as §1, §2

The test system of assay [5] is HepG2, NH/3T3, PC-3, MCF-7 cell lines. The experiment in a line: MTT assay, summary over the cell line panel. Type of assay: cell-based. The note with it: across tested cell lines. The procedure:
as §1, §2

The test system of assay [6] is HepG2 cells. The experiment in a line: Cell cycle analysis, PI staining by flow cytometry. The format is cell-based, human. The conditions noted are these: HepG2, 24 h, 5, 10, and 20 mM as printed. The method, then: For cell cycle distribution studies after treatment with different molar concentrations of 8i and 8k, HepG2 cells were fixed overnight in 70% ethanol, rehydrated in PBS with ribonuclease A (100 μg/ml) and Triton-X (1%) for 30 min at room temperature then PI (at 50 μg/ml) was added and incubated in the dark for 30 min and analyzed with a flow cytometer. Experiments were repeated two times independently.

The test system of another assay is caspase-3 in HepG2 cells. Put plainly: Caspase-3 colorimetric activation assay. Type of assay: cell-based, human. The conditions noted are these: HepG2, 5 and 10 μM, 24 h. The procedure: The activity of caspase-3 was determined using a caspase-3 colorimetric assay kit (Sigma Aldrich) according to the manufacturer's protocol. Briefly, HepG2 cells (1×10^6 cells/well) were treated with 5 and 10 μM of 8i and 8k for 24 h. The cells were harvested and lysed by addition of lysis buffer. Cell lysates were mixed with colorimetric substrate (Ac-DEVD-pNA) and incubated at 37° C. in the dark for 4 h. The absorbance was measured at 405 nm in an ELISA reader. Caspase-3 activity was expressed as the change of the activity compared to the control (FIG. 3).

For assay [7], the system named is HepG2 cells. Put plainly: Apoptosis, annexin V/PI staining by flow cytometry. The format is cell-based, human. The note with it: HepG2, 24 h. The method, then: Quantitation of apoptotic cells by annexin V staining was carried out according to the manufacturer's instructions. Briefly, cells (5×10^5 cells/well) were seeded in 6 well plates and treated with 5 μM of 8h-8k for 24 h. After incubation, cells were washed with PBS and stained with 1.25 μL of annexin V-FITC and 10 μL of media binding reagent and incubated for 20 min. After that 10 μL of PI was added and samples were analyzed using a flow cytometer. Annexin V-FITC was analyzed using excitation and emission settings of 488 nm and 535 nm (FL-1 channel); PI, 488 nm and 610 nm (FL-2 channel). Debris and clumps were gated out using forward and orthogonal light scatter. Each experiment was repeated two times independently. Results are illustrated in FIG. 1 and the percentage of Annexin-V/PI positive cells increased gradually from 20 to 70% after 24 h of treatment (FIG. 1).
For orientation: Flow cytometry measures light scatter and fluorescence of single cells or particles in a stream.

The target of another assay is human ligase I (Homo sapiens, UniProt P18858). The experiment in a line: Ligation assay, DNA ligase I. Type of assay: biochemical. The note with it: screening, FIG. 4 and FIG. 7. The text has this:
The ligation assay was done strictly following the assay protocol described in Xi Chen et. al, Cancer Res 2008; 68(9):3169-3177. The DNA molecules 52 mer (5′-3′), 28-mer (5′-3′) and 34-mer (5′-3′) were used to construct a double stranded nicked substrate for the ligase enzyme (FIG. 4). The 34-mer oligo was labelled with 32P-AMP to form a substrate for ligase and to form a ligase-AMP intermediate. During ligation, the ligase would transfer the AMP to the nick forming a phosphodiester bond and seal the nick. The ligated DNA molecule would be larger in size and run higher up on a 7% Urea-containing denaturing acrylamide gel. If an inhibitor is added to the reaction mixture prior to the addition of ligase, this would lead to an inhibition of ligation and a corresponding loss of labelled ligated product in the gel. We would then be able to calculate the percentage of inhibition of ligation by estimating the amount of ligated product in the lane with no inhibitor and comparing it with the lanes containing different inhibitor molecules or with the same inhibitor molecule at different concentrations.

“Also recorded” adds a separate entry of the source. A value given as a limit tells only on which side of the number the result lay.

human ligase I, sequence (P18858 whole entry): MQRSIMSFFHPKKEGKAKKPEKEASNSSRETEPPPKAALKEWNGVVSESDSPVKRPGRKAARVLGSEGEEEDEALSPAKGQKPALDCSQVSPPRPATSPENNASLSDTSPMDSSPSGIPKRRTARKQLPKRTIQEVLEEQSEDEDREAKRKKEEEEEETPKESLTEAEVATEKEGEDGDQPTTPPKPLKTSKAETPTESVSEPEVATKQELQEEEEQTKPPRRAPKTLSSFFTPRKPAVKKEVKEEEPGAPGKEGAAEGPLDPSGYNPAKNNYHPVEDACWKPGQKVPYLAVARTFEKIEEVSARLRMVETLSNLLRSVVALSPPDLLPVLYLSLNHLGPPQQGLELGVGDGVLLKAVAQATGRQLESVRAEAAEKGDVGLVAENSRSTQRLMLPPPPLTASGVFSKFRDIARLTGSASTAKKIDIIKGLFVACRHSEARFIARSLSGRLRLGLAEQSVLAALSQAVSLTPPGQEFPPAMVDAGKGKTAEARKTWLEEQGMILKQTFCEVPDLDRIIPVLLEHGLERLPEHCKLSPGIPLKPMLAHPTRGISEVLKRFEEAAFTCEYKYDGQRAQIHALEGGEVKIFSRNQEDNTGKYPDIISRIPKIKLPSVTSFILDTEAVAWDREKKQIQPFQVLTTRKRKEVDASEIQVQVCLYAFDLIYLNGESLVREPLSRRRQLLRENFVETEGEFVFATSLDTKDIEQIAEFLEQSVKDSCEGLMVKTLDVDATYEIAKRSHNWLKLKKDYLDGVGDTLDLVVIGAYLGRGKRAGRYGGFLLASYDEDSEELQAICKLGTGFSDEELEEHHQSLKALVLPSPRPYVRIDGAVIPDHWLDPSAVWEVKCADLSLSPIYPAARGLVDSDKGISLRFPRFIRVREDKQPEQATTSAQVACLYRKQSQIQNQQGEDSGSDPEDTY

On to `CCCCCCCCCCCCCN(CCCCCCCCCCCCC)CC(=O)NC1CCC(=O)N(CC(=O)c2ccccc2)C1=O` (centres unmarked) [Compound 7l, N-[2,6-Dioxo-1-(oxo-2-phenyl-ethyl)-piperidine-3-yl]-2-ditridecylamino-acetamide], for which the IC50 in [1], in [2], in [3] and in [4] was greater than 20 µM each time.

For the compound `CCCCCCCCCCCCCCN(CCCCCCCCCCCCCC)CC(=O)NC1CCC(=O)N(CC(=O)c2ccccc2)C1=O` (centres unmarked) [Compound 7m, N-[2,6-Dioxo-1-(oxo-2-phenyl-ethyl)-piperidine-3-yl]-2-ditetradecylamino-acetamide], the IC50 in assay [1], in [2], in assay [3] and in [4] was greater than 20 µM throughout.

Regarding `CC[N+](C)(CC)CC(=O)NC1CCC(=O)N(CC(=O)c2ccccc2)C1=O` (centres unmarked) [Compound 8a, {[2,6-Dioxo-1-(2-oxo-2-phenyl-ethyl)-piperidin-3-ylcarbamoyl]-methyl}-Diethyl-methyl-ammonium iodide], the IC50 in assay [1], in [2], in assay [3] and in [4] was greater than 20 µM each time.

As for `CCC[N+](C)(CCC)CC(=O)NC1CCC(=O)N(CC(=O)c2ccccc2)C1=O` (centres unmarked) [Compound 8b, Dipropylamm{[2,6-Dioxo-1-(2-oxo-2-phenyl-ethyl)-piperidin-3-ylcarbamoyl]-methyl}-methyl-ammonium iodide], the IC50 in assay [1], in [2], in assay [3] and in assay [4] was greater than 20 µM each time.

Regarding `CCCC[N+](C)(CCCC)CC(=O)NC1CCC(=O)N(CC(=O)c2ccccc2)C1=O` (centres unmarked) [Compound 8c, Dibutyl-{[2,6-dioxo-1-(2-oxo-2-phenyl-ethyl)-piperidin-3-ylcarbamoyl]-methyl}-methyl-ammonium iodide], the half-inhibitory concentration (IC50) in [1], in [2], in assay [3] and in [4] was greater than 20 µM each time.

For the compound `CCCCC[N+](C)(CCCCC)CC(=O)NC1CCC(=O)N(CC(=O)c2ccccc2)C1=O` (centres unmarked) [Compound 8d, {[2,6-Dioxo-1-(2-oxo-2-phenyl-ethyl)-piperidin-3-ylcarbamoyl]-methyl}-Methyl-dipentyl-ammonium iodide], the IC50 in assay [1], in assay [2], in assay [3] and in assay [4] was greater than 20 µM throughout.

Consider `CCCCCC[N+](C)(CCCCCC)CC(=O)NC1CCC(=O)N(CC(=O)c2ccccc2)C1=O` (centres unmarked) [Compound 8e, {[2,6-Dioxo-1-(2-oxo-2-phenyl-ethyl)-piperidin-3-ylcarbamoyl]-methyl}-Dihexyl-methyl-ammonium iodide], for which the IC50 in assay [1], in assay [2], in assay [3] and in assay [4] was greater than 20 µM throughout.

Turning to `CCCCCCC[N+](C)(CCCCCCC)CC(=O)NC1CCC(=O)N(CC(=O)c2ccccc2)C1=O` (centres unmarked) [Compound 8f, {[2,6-Dioxo-1-(2-oxo-2-phenyl-ethyl)-piperidin-3-ylcarbamoyl]-methyl}-Diheptyl-methyl-ammonium iodide], the IC50 was greater than 20 µM in [1], 3.3 µM in assay [2], greater than 20 µM in assay [3] and greater than 20 µM in [4].

Regarding `CCCCCCCC[N+](C)(CCCCCCCC)CC(=O)NC1CCC(=O)N(CC(=O)c2ccccc2)C1=O` (centres unmarked) [Compound 8g, {[2,6-Dioxo-1-(2-oxo-2-phenyl-ethyl)-piperidin-3-ylcarbamoyl]-methyl}-Methyl-dioctyl-ammonium iodide], the IC50 in assay [1] is greater than 20 µM; in [2], 3.43 µM; in assay [3], 6.37 µM; in [4], 5.48 µM. Further, the “antiproliferative / anticancer activity (in words)” value in assay [5] is “very good anticancer activity without selectivity”.

On to `CCCCCCCCC[N+](C)(CCCCCCCCC)CC(=O)NC1CCC(=O)N(CC(=O)c2ccccc2)C1=O` (centres unmarked) [Compound 8h, {[2,6-Dioxo-1-(2-oxo-2-phenyl-ethyl)-piperidin-3-ylcarbamoyl]-methyl}-Methyl-dinonyl-ammonium iodide], for which the IC50 in [1] came to 8.75 µM; in assay [2], 3.26 µM; in [3], 6.45 µM; in [4] it was 2.74 µM.

On to `CCCCCCCCCC[N+](C)(CCCCCCCCCC)CC(=O)NC1CCC(=O)N(CC(=O)c2ccccc2)C1=O` (centres unmarked) [Compound 8i, Bis-decyl-{[2,6-dioxo-1-(2-oxo-2-phenyl-ethyl)-piperidin-3-ylcarbamoyl]-methyl}-methyl-ammonium iodide], for which the IC50 in assay [1] worked out at 4.23 µM; in assay [2], 3.07 µM; in assay [3] it was 5.21 µM; in assay [4], 2.13 µM. Further, the “antiproliferative / anticancer activity (in words)” value in assay [5] is on record as “very good anticancer activity without selectivity”. Moreover, in the assay with HepG2 cells [6], the “effect on cell cycle progression” value was “did not altered cell cycle progression; also recorded: did not show any impact on cell cycle progression”. In addition, the caspase-3 activation result in the assay with caspase-3 in HepG2 cells is on record as “activated the caspase-3 in HepG2 cells dose dependently; also recorded: activated the casepase-3 in HepG2 cells dose dependently”. Besides, in the assay with HepG2 cells [7], the “apoptosis induction (in words)” value was “induced significant amount of apoptosis”.

As to `CCCCCCCCCCCCC[N+](C)(CCCCCCCCCCCCC)CC(=O)NC1CCC(=O)N(CC(=O)c2ccccc2)C1=O` (centres unmarked) [Compound 8l, {[2,6-Dioxo-1-(2-oxo-2-phenyl-ethyl)-piperidin-3-ylcarbamoyl]-methyl}-Methyl-ditridecyl-ammonium iodide], the IC50 in assay [1], in assay [2], in [3] and in assay [4] was greater than 20 µM each time. Further, on human ligase I, the “DNA ligase I / ligation inhibition (in words)” value is “did not elicit any DNA ligase I inhibition”.

Consider `CCCCCCCCCCCCCC[N+](C)(CCCCCCCCCCCCCC)CC(=O)NC1CCC(=O)N(CC(=O)c2ccccc2)C1=O` (centres unmarked) [Compound 8m, {[2,6-Dioxo-1-(2-oxo-2-phenyl-ethyl)-piperidin-3-ylcarbamoyl]-methyl}Methyl-ditetradecyl-ammonium iodide], for which the IC50 in [1], in assay [2], in [3] and in [4] was greater than 20 µM throughout. Also, on human ligase I, the “DNA ligase I / ligation inhibition (in words)” value is listed as “did not elicit any DNA ligase I inhibition”.
